Values quoted from earlier work in article PMC12860872, “Preclinical evaluation of DOTAGA.Glu.(FAPI)2 and DO3A.Glu.(FAPI)2 as theranostics with human dosimetry extrapolation to lutetium-177 and terbium-161 analogs” (European Journal of Nuclear Medicine and Molecular Imaging, 2025).

Tests used:
DPP8 = tested on: DPP8; set-up: method as in Martin et al. 2023 (15); details: ref Martin et al. 2023 (15); cited from earlier work
FAP = tested on: FAP; set-up: method as in Martin et al. 2023 (15); details: enzymatic assay; ref Martin et al. 2023 (15); cited from earlier work

N#C[C@@H]1CC(F)(F)CN1C(=O)CNC(=O)c1ccnc2ccccc12 [UAMC-1110, reference compound]
IC50 (DPP8): > 10000 nM | IC50 (FAP): 0.43 ± 0.02 nM
